The test system of one series is mitochondria. Put plainly: QSLR factorial logistic regression of mitochondrial localization (affinity coefficients, cross-validated prediction). The arrangement: species or system human. The note with it: for αi^mito: influence of A group on mitochondrial localization, greater = stronger; for estimated A group affinity coefficient ai / estimated B group affinity coefficient bj: mitochondrial affinity; for estimated A group affinity coefficient ai: ±5 for groups always or never mitochondrial; for βj^mito: influence of B group on mitochondrial localization. From the text: The first column and first row contain the A group and B group labels. The second column and second row contain the estimated A group and B group affinity coefficients (ai and bj respectively). The interior of the table contains the value sij=ai+bj for each compound (where positive values of sij indicate predicted localization to mitochondria, and negative values of sij indicate predicted localization to a non-mitochondrial compartment). The subscript m indicates experimentally determined mitochondrial localization. The subscript o indicates experimentally determined non-mitochondrial localization. The darkened boxes indicate correctly predicted mitochondrial localizations under cross-validation.
Based on this matrix, factorial logistic regression (See, A. Agresti, Categorical Data Analysis, Wiley [2002]) was used to calculate mitochondrial affinity coefficients (ai and bj) for each A and B moiety. (Table 1). Since it is not necessary to observe all possible pairings between A and B building blocks to estimate the affinity coefficients, the QSLR approach can predict localization of unmeasured styryl molecules based on a minimal set of experimentally-determined localizations (see Methods). The methods of the present invention allow assessment of predictivity using the cross-validation technique by holding out one compound and fitting the affinity coefficients using the remaining compounds, predictivity can be assessed by comparing the actual localization of the held-out compound to its predicted localization. Repeating this for every measured compound in the library yields an error rate for the procedure.
Briefly, this technique assigns quantitative scores to each A group (αi^mito) and to each B group (βj^mito), in such a way that αi^mito+βj^mito is positive for compounds with mitochondrial localization, and is negative for compounds lacking mitochondrial localization. […] In additional embodiments, same analysis can be applied to organelles other than mitochondria, provided there are a sufficient number of localizations to specific non-mitochondrial organelles in the combinatorial library of interest for reliable statistical calculations.
In certain embodiments, the predictive performance of the above method was assessed using a cross-validation approach by calculating the proportion of all compounds that are correctly predicted. For cross-validation, each styryl product was set aside in sequence, and the factorial logistic model was fit to the remaining data. Then the resulting A and B scores for the held-out compound were summed. If the sum was positive, the held-out compound was predicted to be mitochondrial, while if the sum was negative, the held-out compound was predicted to be non-mitochondrial. […] The baseline performance of the method scored 104 correct out of 145, or 72%. This number is highly statistically significant compared to random guessing (p-value ˜10^−7). Thus, across the entire library, A and B moieties appear to contribute to localization in an independent, additive fashion.
In some embodiments, subcellular localization data were converted to binary (0/1) values by assigning a value Gij=1 if compound i,j localized to mitochondria (even if it localized to other […] as well), and assigning Gij=0 if compound i,j localized exclusively to any non-mitochondrial cellular structure. Compounds with no localization were omitted from this part of the analysis. The αi and βj coefficients for A or B groups that are always observed to localize to mitochondria, or that never localize to mitochondria, were set to +/−5, respectively. The binary localization data were analyzed using factorial logistic regression. […]

Series [1] is described as follows: Additive decomposition of peak excitation and emission wavelengths (model coefficients of A and B groups). The note with it: for αi^em: influence of A group on peak emission wavelength; for αi^em / αi^ex: A group 1 as baseline; for αi^ex: influence of A group on peak excitation wavelength; for βj^em: influence of B group on peak emission wavelength; for βj^em / βj^ex: B group 1 as baseline; for βj^ex: influence of B group on peak excitation wavelength. An excerpt: The chemical structure of the styryl library is illustrated in FIG. 3. […] Initial analysis focused on measurements of peak emission and excitation wavelength obtained for all styryl products showing a single, localized peak (there were 256 such compounds for emission wavelength, and 193 compounds for excitation wavelength). […] The wavelength for the styryl compound formed by joining A group i with B group j is denoted as λij (or more specifically, λij^ex for excitation wavelength and λij^em for emission wavelength). The additive model λij=ai+βj+εij was fit to the data using least squares yielding parameters αi^ex, αi^em, βj^ex, and βj^em that quantify the influence of each A and B group on the spectrum of the styryl product. […] (FIGS. 8A-8B). […] The predictions were made ignoring interactions between the two functional moieties in the styryl compound. The predicted values were obtained without bias, by holding out the data point to be predicted when training the model.
In preferred embodiments, using the cross-validation approach disclosed herein, each compound was held out in sequence, the model was trained using the remaining compounds, then the wavelength value for the held-out compound was predicted based on the resulting fitted model. This process produced correlations between measured and predicted values of ρ^em=0.78 (emission) and ρ^ex=0.69 (excitation).
Based on this analysis, the contribution of the A and B functional groups to the fluorescence of the styryl product is quantified using the fitted coefficients αi^ex, βj^ex, […], and βj^em. Since these coefficients are on a scale without origin, in some embodiments, the invention uses the first A group and B group as a baseline, so […], β1^ex=0, and so on. Table 3 contains the model coefficients of all A and B groups for peak excitation and emission wavelength.
Greater values of αi^ex, αi^em, βj^ex, and βj^em indicate greater peak wavelength. Greater values of αi^mito and […] indicate stronger mitochondrial localization. A groups 40 and 41 were not screened for localization. A groups 2, 29, and 33 only formed fluorescent products with a single B group, so were not included in the spectral analysis.
In some embodiments, the wavelength values for peak excitation and emission were fit to the additive model λij=αi+βj+εij, where εij denotes error that is made as small as possible in the fitting process. Using least squares to minimize the function [formula] over all compounds having experimental data yields coefficient estimates αi for each A group and βj for each B group. One set of coefficient estimates is obtained for the excitation values and another set is obtained for the emission values. To predict the wavelength of a new compound formed from A and B groups i* and j* the sum αi*+βj* is used.
In some embodiments, for both the spectral and localization analysis, cross-validation was used to obtain unbiased estimates of the prediction performance. Each compound was held out in sequence, and the coefficients αi and βj were fit to the remaining compounds. These values were then used to form a prediction for the held out compound, then the predicted and experimental values were compared to obtain a measure of the accuracy of prediction. Since the wavelength values are on a continuous scale, the predicted values were compared to the experimental values using Pearson correlation coefficients. The localization values are dichotomous, so the proportion of matching predictions was used to compare predicted and experimental localization values.

As for `O=Cc1c2ccccc2cc2ccccc12` [A group 34], in the series with mitochondria, the “influence of A group on mitochondrial localization” value (“influence of A group” for short) was “mitochondrial repulsion”, the “αi^mito” value is listed as −5.0 and the “estimated A group affinity coefficient ai” value is on record as 5.0. Besides, in series [1], the “influence of group on peak wavelength” value is “redder”, the “αi^em” value came to 58.8 nm and the “αi^ex” value is recorded as 14.1 nm.

Consider `COc1cc(OC)c(OC)cc1C=O` [A group 38], for which, in the series on mitochondria, the “αi^mito” value is on record as −1.3 and the “estimated A group affinity coefficient ai” value is −1.3. Also, in series [1], the “αi^em” value was 22.2 nm and the “αi^ex” value was −15.6 nm.

Consider `O=Cc1ccccc1[N+](=O)[O-]` [A group 20], for which, in the series on mitochondria, the “αi^mito” value is −2.7 and the “estimated A group affinity coefficient ai” value was −2.7. In addition, in series [1], the “influence of group on peak wavelength” value was “the far red shift is not observed”, the “αi^em” value is listed as 44.5 nm and the “αi^ex” value came out at 6.5 nm.

With `Cc1ccc(C=O)cc1` [A group 8], in the series on mitochondria, the “αi^mito” value is 5.0 and the “estimated A group affinity coefficient ai” value is reported as 5.0. In series [1], the “αi^em” value was 38.5 nm and the “αi^ex” value is on record as 10.9 nm.

With `COc1cc(C=O)cc(OC)c1OC` [A group 13], in the series with mitochondria, the “αi^mito” value is on record as 5.0 and the “estimated A group affinity coefficient ai” value is given as 5.0. In addition, in series [1], the “αi^em” value is listed as 0.2 nm and the “αi^ex” value is recorded as −44.2 nm.

As to `COc1ccc(C=O)cc1O` [A group 15], in the series on mitochondria, the “αi^mito” value is given as −0.6 and the “estimated A group affinity coefficient ai” value was −0.6. In addition, in series [1], the “αi^em” value was −33.1 nm and the “αi^ex” value is on record as −46.9 nm.

With `COc1ccc(C=O)c2ccccc12` [A group 14], in the series with mitochondria, the “αi^mito” value is −1.2 and the “estimated A group affinity coefficient ai” value is given as −1.2. In series [1], the “αi^em” value is on record as 0.3 nm and the “αi^ex” value is listed as −1.6 nm.

Take `O=Cc1cccc([N+](=O)[O-])c1` [A group 21]: in the series on mitochondria, the “αi^mito” value is given as 0.8 and the “estimated A group affinity coefficient ai” value is listed as 0.8. In addition, in series [1], the “influence of group on peak wavelength” value was “the far red shift is not observed”, the “αi^em” value was 21.6 nm and the “αi^ex” value is listed as −68.0 nm.

Turning to `O=CCc1ccccc1` [A group 1], in the series on mitochondria, the “αi^mito” value is on record as −0.2 and the “estimated A group affinity coefficient ai” value is −0.2. In series [1], the “αi^em” value worked out at 0.0 nm and the “αi^ex” value is given as 0.0 nm.

Take `Cc1cc[n+](C)c2ccccc12.[I-]` [B group 7]: in the series on mitochondria, the “βj^mito” value is on record as 3.5 and the “estimated B group affinity coefficient bj” value was 3.5. In series [1], the “influence of group on peak wavelength” value is listed as “strongly contribute towards the red end of the spectrum”, the “βj^em” value is listed as 63.7 nm and the “βj^ex” value is listed as 29.6 nm.

As to `O=CC=Cc1ccccc1[N+](=O)[O-]` [A group 36], in the series on mitochondria, the “αi^mito” value is reported as 5.0 and the “estimated A group affinity coefficient ai” value is 5.0. In series [1], the “influence of group on peak wavelength” value is “the far red shift is not observed”, the “αi^em” value amounted to 3.8 nm and the “αi^ex” value was −25.3 nm.

Turning to `O=Cc1ccc(F)cc1` [A group 30], in the series with mitochondria, the “influence of A group” value is given as “mitochondrial attraction”, the “αi^mito” value is recorded as 5.0 and the “estimated A group affinity coefficient ai” value is listed as 5.0. Moreover, in series [1], the “influence of group on peak wavelength” value is “redder”, the “αi^em” value is reported as 50.1 nm and the “αi^ex” value is reported as 7.4 nm.

Take `O=Cc1ccc(-c2ccccc2)cc1` [A group 17]: in the series on mitochondria, the “influence of A group” value is “mitochondrial repulsion”, the “αi^mito” value was −5.0 and the “estimated A group affinity coefficient ai” value is −5.0. Also, in series [1], the “influence of group on peak wavelength” value is “bluer”, the “αi^em” value is −46.6 nm and the “αi^ex” value is given as −14.3 nm.

Turning to `COc1ccccc1C=O` [A group 9], in the series on mitochondria, the “αi^mito” value was 5.0 and the “estimated A group affinity coefficient ai” value is listed as 5.0. In series [1], the “αi^em” value is given as −17.6 nm and the “αi^ex” value is on record as −36.7 nm.

As for `COc1ccc2c(ccc(C)[n+]2C)c1.[I-]` [B group 9], in the series on mitochondria, the “βj^mito” value was −2.0 and the “estimated B group affinity coefficient bj” value was −2.0. In series [1], the “influence of group on peak wavelength” value is “strongly contribute towards the red end of the spectrum”, the “βj^em” value amounted to 35.0 nm and the “βj^ex” value was −0.1 nm.

`CN(C)c1ccc(C=O)c2ccccc12` [A group 27]: in the series on mitochondria, the “αi^mito” value is −0.3 and the “estimated A group affinity coefficient ai” value is −0.3. Moreover, in series [1], the “influence of group on peak wavelength” value is reported as “strongly contribute towards the red end of the spectrum”, the “αi^em” value amounted to 72.0 nm and the “αi^ex” value is 11.1 nm.

`O=Cc1ccccc1F` [A group 29]: in the series with mitochondria, the “αi^mito” value is 5.0 and the “estimated A group affinity coefficient ai” value is on record as 5.0. The “αi^em” value in series [1] is given as −8.0 nm.

Regarding `CN(C)c1ccc(C=CC=O)cc1` [A group 37], in the series with mitochondria, the “αi^mito” value is −0.9 and the “estimated A group affinity coefficient ai” value is −0.9. In series [1], the “influence of group on peak wavelength” value was “strongly contribute towards the red end of the spectrum”, the “αi^em” value amounted to 122.1 nm and the “αi^ex” value is 82.9 nm.

Regarding `O=Cc1ccc2c(c1)Cc1ccccc1-2` [A group 28], in the series with mitochondria, the “αi^mito” value is given as −5.0 and the “estimated A group affinity coefficient ai” value was −5.0. Besides, in series [1], the “αi^em” value is 44.9 nm and the “αi^ex” value was 2.4 nm.

Consider `O=Cc1ccc(OCc2ccccc2)c(OCc2ccccc2)c1` [A group 12], for which, in the series on mitochondria, the “αi^mito” value was −3.3 and the “estimated A group affinity coefficient ai” value is on record as −3.3. For the same compound, in series [1], the “αi^em” value is given as −22.7 nm and the “αi^ex” value is listed as −36.7 nm.

As to `Cc1ccccc1C=O` [A group 7], in the series on mitochondria, the “αi^mito” value is 5.0 and the “estimated A group affinity coefficient ai” value was 5.0. In addition, in series [1], the “αi^em” value worked out at 38.5 nm and the “αi^ex” value is given as −44.1 nm.

The values above are taken from patent publication US20070111251A1, “Chemical address tags” (priority 2003, published 2007).
